# Laboratory results as given in patent US9376406B2, “uPAR-uPA interaction inhibitors and methods for treating cancer” (Indiana University Research and Technology Corporation, priority 2011, dated 2016).
# Entries after “also recorded” stand apart in the source; their conditions may differ.
# Key:
# uPAATF binding to uPAR = target: T1, uPAATF binding to uPAR (Homo sapiens, UniProt Q03405); assay: Microtiter-based uPAATF ELISA; details: inhibition of uPAATF binding to uPAR
# T1 construct: uPAR comprising amino acids 1-277 was expressed in Drosophila S2 cells; made in house; host or cells: Drosophila S2 cells (uPAR)
# Experimental: Microtiter-Based ELISA. The competition-binding assays were performed by incubating the proteins with inhibitors prior to binding to the immobilized proteins. Medium to high-binding microplates were coated and incubated for 1 hour at 4° C. with 100 μL of 2 μg/mL of uPAATF in 1×PBS for immobilization. A 1:1 mixture of Superblock® buffer in PBS (Thermoscientific) with 0.04 M NaH2PO4 and 0.3 M NaCl buffer were used for blocking Following the incubation and washing steps, uPA1310 biotinylated antibody (R&D Systems, MN) in 1% BSA 1×PBS buffer (100 μL/well) was added to the wells and incubated for 1-2 hours to allow for the detection of bound uPAR. In the presence of streptavidin-peroxidase and hydrogen peroxide signal was detected on an EnVision® Multilabel Plate Readers (PerkinElmer).
# H1299 cells [1] = assay: Cytotoxicity (MTT); assay type: cell-based, human
# Experimental: (§1) Transwell Migration Assay. A 24 well transwell plates (Costar, Corning, N.Y.) were coated with fibronectin. After 4 h of serum starvation, medium containing the same amount of compounds or DMSO were added to the upper chamber and incubated at 37° C. for 8 h. The number of migrated cells was counted in 10 separate 200×fields and averaged over three independent experiments. Cytotoxicity of the compounds on the cells was measured at the same concentrations used in the migration assay during the same incubation time. MTT was added 2 h before measuring.
# (§2) A 24 well transwell plates (Costar, Corning, N.Y.) were coated with 30 ng/μl of fibronectin at 4° C. overnight. 500 μl of 10% FBS RPMI-1640 medium containing compounds or 1% DMSO control was added to the lower chamber. After 4 h of serum starvation, 5×10^4 cells in 250 μl of 0.1% FBS medium containing the same amount of compounds or DMSO were added to the upper chamber and incubated at 37° C. for 8 h. Non-invaded cells on the top of the transwell were scrapped-off with a cotton swab, and the cells that had migrated through the filter were fixed in methanol for 30 min, stained with Hematoxylin Stain (Fisher, SH30-500D) for 1 h. The number of migrated cells was counted in 10 separate 200×fields and averaged over three independent experiments. Cytotoxicity of the compounds on the cells was measured at the same concentrations used in the migration assay during the same incubation time, MTT was added 2 h before measuring.
# (§3) Ten fields of unit area on each membrane were counted for cell numbers (magnification, 200×). […] The effect of the compound appears to be more pronounced in MDA-MB-231 cells compared with H1299. The level of toxicity of the compounds is measured at each concentration within the timescale of the invasion experiment to ensure that the observed effects are not due to cytotoxicity (FIG. 3(a)).
# MDA-MB-231 cells [2] = assay: Cytotoxicity (MTT); assay type: cell-based, human
# Experimental: as §1, §2, §3
# H1299 cells [3] = assay: Transwell (Boyden chamber) migration assay; assay type: cell-based, human
# Experimental: as §1
# as §2, with “Non-invaded cells on the top of the transwell were scrapped-off with a cotton swab, and the cells that had migrated through the filter were fixed in methanol for 30 min, stained with Hematoxylin Stain (Fisher, SH30-500D) for 1 h.” left out, “measuring. […]” for “measuring.”
# MDA-MB-231 cells [4] = assay: Transwell (Boyden chamber) migration assay; assay type: cell-based, human
# Experimental: as §1
# as §2, with “Non-invaded cells on the top of the transwell were scrapped-off with a cotton swab, and the cells that had migrated through the filter were fixed in methanol for 30 min, stained with Hematoxylin Stain (Fisher, SH30-500D) for 1 h.” left out, “measuring. […]” for “measuring.”
# H1299 cells [5] = assay: Adhesion assay; assay type: cell-based, human; details: H1299, fibronectin- and vitronectin-coated wells
# Experimental: (§4) Adhesion Assay. 96-well plates were coated with 15 ng/μl fibronectin (Sigma, St. Louis, Mo.) at 4° C. overnight, then blocked with 0.5% BSA in PBS for 1 h. After starving with serum-free medium for 3 h, H1299 or MDA-MB-231 (2.5×10^5 cells/ml) were trypsinized and suspended in 100 μl of 0.1% FBS medium with various concentrations of uPAR compounds or DMSO control at 37° C. for 90 min. Medium was then carefully suctioned out from each well. Each well was washed three times with PBS. MTT-assay was used to determine the number of remaining cells (adherent cells).
# (§5) The numbers of attached cells were quantified by MTT assay. Adherent cells are also quantified with fluorescence. […] The lack of inhibition was found both on fibronectin- and vitronectin-coated wells.
# MDA-MB-231 cells [6] = assay: Adhesion assay; assay type: cell-based, human; details: MDA-MB-231, fibronectin- and vitronectin-coated wells
# Experimental: as §4, §5
# uPAR = target: T2, uPAR (Homo sapiens, UniProt Q03405); assay: Fluorescence polarization assay, displacement of GFD-FAM; assay type: binding; details: displacement of GFD-FAM from uPAR
# T2 construct: uPAR comprising amino acids 1-277 was expressed in Drosophila S2 cells; made in house; host or cells: Drosophila S2 cells
# Experimental: Fluorescence Polarization Assay. […] Polarized fluorescence intensities were measured immediately following addition of inhibitors to the protein-peptide mix at room temperature on an EnVision® Multilabel Plate Readers (PerkinElmer) with excitation and emission wavelengths of 485 and 530 nm, respectively.
# Fluorescence Polarization Screening to Identify Hit Compounds. To identify compounds that bind to uPAR at the GFD binding site, a fluorescent polarization assay is conceived with a probe that consists of labeling GFD with fluorescein at its N-terminus (GFD-FAM). […] Using this assay, all compounds that emerge from the computational screening are tested initially at a single concentration of 50 μM. The compounds showing the highest reduction in polarization are subjected to activity confirmation.
# H1299 cells [7] = assay: Wound healing assay; assay type: cell-based; details: Homo sapiens, NCI-H1299, read-out: migration IC50
# Experimental: (§6) Wound Healing Assay. Confluent cell monolayers in 12-well plates were wounded by scraping with a micropipette tip. The cells were washed and then cultured in complete media containing the compounds. The degree of wound closure was assessed in three randomly chosen regions by measuring the distance between the wound edges just after wounding and after 16 h under Nikon Diaphot 300 microscope.
# (§7) Without being bound by theory, it is believed that, to invade neighboring tissue, cells must acquire additional motility, although invasion and migration may proceed through different mechanisms. […] The first uses the Boyden chamber apparatus to assess the effect of compound on migration primarily mediated by chemotaxis. […] The other approach to test for effects on migration was the wound healing assay, which probes migration mediated by a concentration gradient established by the wound. It is also not as sensitive to potential cytotoxic effects.
# MDA-MB-231 cells [8] = assay: Wound healing assay; assay type: cell-based; details: Homo sapiens; MDA-MB-231, wound healing; read-out: migration IC50
# Experimental: as §6, §7
# T1 sequence (Q03405 23-299): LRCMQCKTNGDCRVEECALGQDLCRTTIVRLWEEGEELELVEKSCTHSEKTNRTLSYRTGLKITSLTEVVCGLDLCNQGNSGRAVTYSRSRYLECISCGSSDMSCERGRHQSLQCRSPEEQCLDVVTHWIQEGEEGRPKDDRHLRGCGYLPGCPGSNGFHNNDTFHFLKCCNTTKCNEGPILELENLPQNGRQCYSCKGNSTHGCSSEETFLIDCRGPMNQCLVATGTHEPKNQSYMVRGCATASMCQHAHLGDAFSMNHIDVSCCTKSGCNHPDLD
# T2 sequence (Q03405 23-299): as above
structure (smiles),measurement,setting,value
CC1CC(C)CN(c2cc(Nc3ccccc3C(=O)O)c3c4c(onc24)-c2ccccc2C3=O)C1 (stereo not drawn) [IPR-456],IC50,uPAATF binding to uPAR,~10 µM
same,cytotoxicity,"H1299 cells [1]; H1299, cells harvested from migration assays",none was observed
same,cytotoxicity,"H1299 cells [1]; H1299, timescale of invasion experiment, concentrations reaching 200 μM",did not exhibit undue toxicity
same,cytotoxicity,"MDA-MB-231 cells [2]; MDA-MB-231, cells harvested from migration assays",none was observed
same,cytotoxicity,"MDA-MB-231 cells [2]; MDA-MB-231, timescale of invasion experiment, concentrations reaching 200 μM",did not exhibit undue toxicity
same,"migration, Boyden chamber",H1299 cells [3],blocked migration in a dose-dependent manner
same,"migration, Boyden chamber",MDA-MB-231 cells [4],blocked migration in a dose-dependent manner
same,cell adhesion,H1299 cells [5],no effect on cell adhesion; also recorded: lack an effect
same,cell adhesion,MDA-MB-231 cells [6],no effect on cell adhesion; also recorded: lack an effect
same,Ki,uPAR,4 µM
same,IC50,H1299 cells [7],~150 µM
same,IC50,MDA-MB-231 cells [8],~150 µM
